Earlier results as cited in patent US20210077498A1, “TRANSIENT PROTECTION OF HEMATOPOIETIC STEM AND PROGENITOR CELLS AGAINST IONIZING RADIATION” (G1 Therapeutics, Inc., priority 2015, published 2021).

Tests used:
[1] = system: CDK4/6 independent Rb-null melanoma cell line A2058; conditions: cited from earlier work
[2] = in vivo; cited from earlier work
[3] = system: mice exposed to peri-lethal and lethal TBI; conditions: compared to untreated controls; cited from earlier work
[4] = system: CDK4/6-dependent cell lines; conditions: cited from earlier work

Structure (SMILES): O=C1NC(=O)c2c1c1c3ccccc3[nH]c1c1[nH]c3cc(Br)ccc3c21 [Formula 2BrIC, 2-bromo-12,13-dihydro-5H-indolo[2,3-a]pyrrolo[3,4]carbazole-5,6-dione]
- G1 arrest [1]: did not G1 arrest
- protection from IR exposure [1]: failed to protect
- bioavailability [2]: restricted bioavailability
- HSPC protection and survival after TBI [3]: protect HSPCs and improve survival of mice
- IR protection [4]: exhibited IR protective characteristics
